pIC50: −log10 of the molar value.

These results are taken from patent US11524938B2, “Aromatic sulfonamide derivatives” (Bayer Pharma Aktiengesellschaft, priority 2016, dated 2022).

The experiment has as its target T1, human P2X4 (Homo sapiens, UniProt Q99571).
T1 sequence (Q99571 1-388): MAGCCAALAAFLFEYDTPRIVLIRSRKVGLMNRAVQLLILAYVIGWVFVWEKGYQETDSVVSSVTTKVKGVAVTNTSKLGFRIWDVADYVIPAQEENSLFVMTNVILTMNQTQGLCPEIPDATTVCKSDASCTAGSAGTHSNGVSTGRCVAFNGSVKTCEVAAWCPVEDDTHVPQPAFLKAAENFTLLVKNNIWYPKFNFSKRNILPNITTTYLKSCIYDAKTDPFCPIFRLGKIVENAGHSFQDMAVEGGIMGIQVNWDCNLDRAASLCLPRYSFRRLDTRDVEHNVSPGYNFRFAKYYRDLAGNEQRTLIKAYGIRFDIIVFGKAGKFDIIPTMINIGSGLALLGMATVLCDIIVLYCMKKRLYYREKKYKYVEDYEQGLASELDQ
The experiment can be described thus: Human P2X4 HEK Cell FLIPR Assay. In kind it is cell-based. Particulars: agonist Bz-ATP at EC80; for Emax: HEK293, HEK293 cells, percentage of maximal inhibition, read-out: Human P2X4 HEK Cells (FLIPR Assay) avg Efficacy [%]; for pIC50: HEK293 cells, individual values listed where some fall outside detection range. A digest of the protocol: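 Calcium flux read by FLIPR for 120 sec after Bz-ATP challenge at EC80 (established each assay day), following 30 min room-temperature compound preincubation in dye-loaded stable human P2X4 HEK293 cells. Peak RFU over basal normalized to agonist control; IC50, maximal inhibition and Hill coefficient from triplicate means.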

For the compound `NS(=O)(=O)c1cc(NC(=O)Cc2ccc(Cl)cc2Cl)ccc1-c1cncc(C(F)(F)F)c1` [Example 448, 2-(2,4-Dichlorophenyl)-N-{3-sulfamoyl-4-[5-(trifluoromethyl)pyridin-3-yl]phenyl}acetamide], the Emax was determined as 63% and the negative logarithm of the IC50 (pIC50) was 6.33.
The matching figures for `NS(=O)(=O)c1cc(NC(=O)Cc2ccccc2Br)ccc1-c1cncc(C(F)(F)F)c1` [Example 449, 2-(2-Bromophenyl)-N-{3-sulfamoyl-4-[5-(trifluoromethyl)pyridin-3-yl]phenyl}acetamide]: 73% and 6.87.
Turning to `NS(=O)(=O)c1cc(NC(=O)Cc2ccc(F)cc2F)ccc1-c1cncc(C(F)(F)F)c1` [Example 450, 2-(2,4-Difluorophenyl)-N-{3-sulfamoyl-4-[5-(trifluoromethyl)pyridin-3-yl]phenyl}acetamide], the Emax worked out at 72% and the pIC50 is 6.83.
Regarding `NS(=O)(=O)c1cc(NC(=O)Cc2ccc(F)c(F)c2)ccc1-c1cncc(C(F)(F)F)c1` [Example 451, 2-(3,4-Difluorophenyl)-N-{3-sulfamoyl-4-[5-(trifluoromethyl)pyridin-3-yl]phenyl}acetamide], the Emax is 86% and the negative logarithm of the IC50 (pIC50) is 6.61.
Turning to `NS(=O)(=O)c1cc(NC(=O)Cc2cc(F)cc(F)c2)ccc1-c1cncc(C(F)(F)F)c1` [Example 452, 2-(3,5-Difluorophenyl)-N-{3-sulfamoyl-4-[5-(trifluoromethyl)pyridin-3-yl]phenyl}acetamide], the Emax was determined as 65% and the pIC50 was 7.12.
The matching figures for `NS(=O)(=O)c1cc(NC(=O)Cc2cccc(Cl)c2)ccc1-c1cncc(C(F)(F)F)c1` [Example 453, 2-(3-Chlorophenyl)-N-{3-sulfamoyl-4-[5-(trifluoromethyl)pyridin-3-yl]phenyl}acetamide]: 77% and 7.13.
The matching figures for `Cc1ccc(CC(=O)Nc2ccc(-c3cncc(C(F)(F)F)c3)c(S(N)(=O)=O)c2)cc1` [Example 454, 2-(4-Methylphenyl)-N-{3-sulfamoyl-4-[5-(trifluoromethyl)pyridin-3-yl]phenyl}acetamide]: 58% and 5.84.
With `COc1ccc(CC(=O)Nc2ccc(-c3cncc(C(F)(F)F)c3)c(S(N)(=O)=O)c2)cc1` [Example 455, 2-(4-Methoxyphenyl)-N-{3-sulfamoyl-4-[5-(trifluoromethyl)pyridin-3-yl]phenyl}acetamide], the Emax was 74% and the pIC50 is 8.30.
Taken in the same sequence, the figures for `Cc1ccc(CC(=O)Nc2ccc(-c3cncc(C(F)(F)F)c3)c(S(N)(=O)=O)c2)c(F)c1` [Example 456, 2-(2-Fluoro-4-methylphenyl)-N-{3-sulfamoyl-4-[5-(trifluoromethyl)pyridin-3-yl]phenyl}acetamide] were 59% and 7.74.
Regarding `COc1ccc(CC(=O)Nc2ccc(-c3cncc(C(F)(F)F)c3)c(S(N)(=O)=O)c2)c(F)c1` [Example 457, 2-(2-Fluoro-4-methoxyphenyl)-N-{3-sulfamoyl-4-[5-(trifluoromethyl)pyridin-3-yl]phenyl}acetamide], the Emax was 70% and the pIC50 is 6.25.
Regarding `NS(=O)(=O)c1cc(NC(=O)Cc2ccc(C(F)F)cc2)ccc1-c1cncc(C(F)(F)F)c1` [Example 458, 2-[4-(Difluoromethyl)phenyl]-N-{3-sulfamoyl-4-[5-(trifluoromethyl)pyridin-3-yl]phenyl}acetamide], the Emax came to 85% and the negative logarithm of the IC50 (pIC50) was 5.97.
The matching figures for `NS(=O)(=O)c1cc(NC(=O)Cc2ccc(Cl)cc2)ccc1-c1ccc(Cl)nc1` [Example 459, 2-(4-Chlorophenyl)-N-[4-(6-chloropyridin-3-yl)-3-sulfamoylphenyl]acetamide]: 88% and 5.87.
As to `NS(=O)(=O)c1cc(NC(=O)Cc2ccccc2F)ccc1-c1ccc(Cl)nc1` [Example 460, N-[4-(6-Chloropyridin-3-yl)-3-sulfamoylphenyl]-2-(2-fluorophenyl)acetamide], the Emax was found to be 84% and the pIC50 was 6.19.
The matching figures for `NS(=O)(=O)c1cc(NC(=O)Cc2c(F)cccc2Cl)ccc1-c1ccc(Cl)nc1` [Example 461, 2-(2-Chloro-6-fluorophenyl)-N-[4-(6-chloropyridin-3-yl)-3-sulfamoylphenyl]acetamide]: 93% and 6.86.
For `NS(=O)(=O)c1cc(NC(=O)Cc2ccc(C(F)(F)F)cc2)ccc1-c1ccc(Cl)nc1` [Example 462, N-[4-(6-Chloropyridin-3-yl)-3-sulfamoylphenyl]-2-[4-(trifluoromethyl)phenyl]acetamide], the Emax amounted to 89% and the pIC50 was 6.03.
Taken in the same sequence, the figures for `NS(=O)(=O)c1cc(NC(=O)Cc2ccccc2C(F)(F)F)ccc1-c1ccc(Cl)nc1` [Example 463, N-[4-(6-Chloropyridin-3-yl)-3-sulfamoylphenyl]-2-[2-(trifluoromethyl)phenyl]acetamide] were 99% and 7.74.
Turning to `NS(=O)(=O)c1cc(NC(=O)Cc2cccc(F)c2)ccc1-c1ccc(Cl)nc1` [Example 464, N-[4-(6-Chloropyridin-3-yl)-3-sulfamoylphenyl]-2-(3-fluorophenyl)acetamide], the Emax was determined as 92% and the pIC50 was 6.19.
Consider `NS(=O)(=O)c1cc(NC(=O)Cc2ccc(Cl)cc2Cl)ccc1-c1ccc(Cl)nc1` [Example 465, N-[4-(6-Chloropyridin-3-yl)-3-sulfamoylphenyl]-2-(2,4-dichlorophenyl)acetamide], for which the Emax was 92% and the negative-log IC50 (pIC50) is 7.59.
With `NS(=O)(=O)c1cc(NC(=O)Cc2ccc(F)cc2F)ccc1-c1ccc(Cl)nc1` [Example 466, N-[4-(6-Chloropyridin-3-yl)-3-sulfamoylphenyl]-2-(2,4-difluorophenyl)acetamide], the Emax worked out at 91% and the pIC50 is 6.44.
Taken in the same sequence, the figures for `NS(=O)(=O)c1cc(NC(=O)Cc2ccccc2Br)ccc1-c1ccc(Cl)nc1` [Example 467, 2-(2-Bromophenyl)-N-[4-(6-chloropyridin-3-yl)-3-sulfamoylphenyl]acetamide] were 93% and 8.05.
The matching figures for `NS(=O)(=O)c1cc(NC(=O)Cc2ccc(F)c(F)c2)ccc1-c1ccc(Cl)nc1` [Example 468, N-[4-(6-Chloropyridin-3-yl)-3-sulfamoylphenyl]-2-(3,4-difluorophenyl)acetamide]: 97% and 6.56.
Taken in the same sequence, the figures for `Cc1ccc(CC(=O)Nc2ccc(-c3ccc(Cl)nc3)c(S(N)(=O)=O)c2)cc1` [Example 469, N-[4-(6-Chloropyridin-3-yl)-3-sulfamoylphenyl]-2-(4-methylphenyl)acetamide] were 90% and 6.34.
`COc1ccc(CC(=O)Nc2ccc(-c3ccc(Cl)nc3)c(S(N)(=O)=O)c2)cc1` [Example 470, N-[4-(6-Chloropyridin-3-yl)-3-sulfamoylphenyl]-2-(4-methoxyphenyl)acetamide]: the Emax came out at 93% and the pIC50 was 6.32.
Taken in the same sequence, the figures for `Cc1ccc(CC(=O)Nc2ccc(-c3ccc(Cl)nc3)c(S(N)(=O)=O)c2)c(F)c1` [Example 471, N-[4-(6-Chloropyridin-3-yl)-3-sulfamoylphenyl]-2-(2-fluoro-4-methylphenyl)acetamide] were 92% and 6.57.
